In ChEMBL document CHEMBL5465560, “Selectivity Literature for EUbOPEN Chemogenomic Library” (2024):

Key:
[1] = biological target: T1, Serine/threonine-protein kinase TAO1 (Homo sapiens) (UniProt Q7L7X3); test: Selectivity interaction (KinomeScan (DiscoverX)) EUB0000092b TAOK1; conditions: at 10 µM
T1 sequence (whole entry): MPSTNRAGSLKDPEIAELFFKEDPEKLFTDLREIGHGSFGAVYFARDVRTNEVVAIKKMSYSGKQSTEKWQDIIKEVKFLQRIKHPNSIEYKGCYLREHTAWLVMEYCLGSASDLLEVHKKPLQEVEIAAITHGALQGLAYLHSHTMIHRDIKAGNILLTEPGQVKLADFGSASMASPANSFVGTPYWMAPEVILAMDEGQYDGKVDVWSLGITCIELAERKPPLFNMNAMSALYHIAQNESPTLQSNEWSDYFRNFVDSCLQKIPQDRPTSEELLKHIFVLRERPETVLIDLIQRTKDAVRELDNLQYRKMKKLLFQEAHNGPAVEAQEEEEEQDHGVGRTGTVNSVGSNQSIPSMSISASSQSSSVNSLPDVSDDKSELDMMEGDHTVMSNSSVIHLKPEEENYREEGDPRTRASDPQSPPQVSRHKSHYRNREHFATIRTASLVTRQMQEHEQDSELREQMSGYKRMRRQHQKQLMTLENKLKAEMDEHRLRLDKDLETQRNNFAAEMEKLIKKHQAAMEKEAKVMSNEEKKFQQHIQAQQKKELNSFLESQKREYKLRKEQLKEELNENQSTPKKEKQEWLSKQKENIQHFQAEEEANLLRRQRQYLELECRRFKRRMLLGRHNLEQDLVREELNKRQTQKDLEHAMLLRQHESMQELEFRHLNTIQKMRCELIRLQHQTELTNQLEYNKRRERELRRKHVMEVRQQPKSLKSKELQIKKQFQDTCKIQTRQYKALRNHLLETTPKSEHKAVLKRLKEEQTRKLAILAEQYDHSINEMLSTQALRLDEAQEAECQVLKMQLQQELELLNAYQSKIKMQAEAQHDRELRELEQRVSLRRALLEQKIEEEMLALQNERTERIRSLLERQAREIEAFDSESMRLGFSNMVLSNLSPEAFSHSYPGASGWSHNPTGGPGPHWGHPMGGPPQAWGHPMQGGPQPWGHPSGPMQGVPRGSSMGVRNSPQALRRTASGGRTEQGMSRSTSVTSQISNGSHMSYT

[2] = biological target: T2, Mitogen-activated protein kinase kinase kinase kinase 3 (Homo sapiens) (UniProt Q8IVH8); test: Selectivity interaction (KinomeScan (DiscoverX)) EUB0000655a MAP4K3; conditions: at 10 µM
T2 sequence (whole entry): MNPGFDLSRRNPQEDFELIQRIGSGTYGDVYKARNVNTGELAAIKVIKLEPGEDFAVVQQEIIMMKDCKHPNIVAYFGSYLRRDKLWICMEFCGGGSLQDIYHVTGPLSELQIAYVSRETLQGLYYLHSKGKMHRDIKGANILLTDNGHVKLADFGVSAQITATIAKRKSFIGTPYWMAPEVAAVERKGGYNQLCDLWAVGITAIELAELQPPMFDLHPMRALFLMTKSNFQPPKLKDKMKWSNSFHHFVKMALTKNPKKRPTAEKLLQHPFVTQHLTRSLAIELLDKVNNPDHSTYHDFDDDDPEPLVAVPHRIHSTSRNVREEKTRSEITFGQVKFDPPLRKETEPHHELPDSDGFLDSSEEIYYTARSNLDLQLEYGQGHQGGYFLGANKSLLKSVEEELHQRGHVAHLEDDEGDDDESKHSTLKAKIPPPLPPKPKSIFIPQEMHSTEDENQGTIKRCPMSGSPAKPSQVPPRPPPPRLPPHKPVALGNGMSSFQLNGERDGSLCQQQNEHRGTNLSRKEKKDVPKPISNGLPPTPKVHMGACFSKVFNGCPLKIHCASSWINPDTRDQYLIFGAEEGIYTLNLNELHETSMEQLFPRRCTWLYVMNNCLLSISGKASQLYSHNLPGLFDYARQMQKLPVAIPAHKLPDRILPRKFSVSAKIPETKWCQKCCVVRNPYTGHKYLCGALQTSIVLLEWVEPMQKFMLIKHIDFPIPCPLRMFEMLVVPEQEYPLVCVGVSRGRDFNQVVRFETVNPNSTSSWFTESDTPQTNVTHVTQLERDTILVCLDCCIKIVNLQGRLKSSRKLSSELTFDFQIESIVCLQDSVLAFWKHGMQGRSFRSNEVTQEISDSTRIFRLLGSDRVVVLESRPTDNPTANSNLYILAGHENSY

[3] = biological target: Protein kinase C delta type (Homo sapiens) (UniProt Q05655); test: Selectivity interaction (Millipore kinase profiler) EUB0000124b PRKCD; conditions: at 10 µM
Sequence of Protein kinase C delta type (Homo sapiens) (Q05655 whole entry, looked up): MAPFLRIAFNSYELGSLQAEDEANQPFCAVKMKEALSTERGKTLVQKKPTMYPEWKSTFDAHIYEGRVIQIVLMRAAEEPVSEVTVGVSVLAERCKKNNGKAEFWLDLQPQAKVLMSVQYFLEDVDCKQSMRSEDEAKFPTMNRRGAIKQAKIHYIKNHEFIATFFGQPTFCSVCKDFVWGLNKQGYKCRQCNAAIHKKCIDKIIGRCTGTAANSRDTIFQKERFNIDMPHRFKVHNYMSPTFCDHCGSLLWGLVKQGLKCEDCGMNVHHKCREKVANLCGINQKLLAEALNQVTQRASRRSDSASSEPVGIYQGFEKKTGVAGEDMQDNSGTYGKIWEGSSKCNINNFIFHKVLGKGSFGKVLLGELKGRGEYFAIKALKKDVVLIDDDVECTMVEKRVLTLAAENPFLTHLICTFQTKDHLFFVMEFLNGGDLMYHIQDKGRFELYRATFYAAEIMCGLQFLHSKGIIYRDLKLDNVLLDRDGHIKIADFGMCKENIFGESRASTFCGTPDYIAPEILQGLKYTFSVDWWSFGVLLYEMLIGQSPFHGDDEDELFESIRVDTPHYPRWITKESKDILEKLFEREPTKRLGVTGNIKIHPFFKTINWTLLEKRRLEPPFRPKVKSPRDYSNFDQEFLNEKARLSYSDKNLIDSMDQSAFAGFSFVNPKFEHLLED

[4] = biological target: T3, Serine/threonine-protein kinase Nek9 (Homo sapiens) (UniProt Q8TD19); test: Selectivity interaction (Kinase panel (Invitrogen)) EUB0000639a NEK9; conditions: at 200 nM
T3 sequence (whole entry): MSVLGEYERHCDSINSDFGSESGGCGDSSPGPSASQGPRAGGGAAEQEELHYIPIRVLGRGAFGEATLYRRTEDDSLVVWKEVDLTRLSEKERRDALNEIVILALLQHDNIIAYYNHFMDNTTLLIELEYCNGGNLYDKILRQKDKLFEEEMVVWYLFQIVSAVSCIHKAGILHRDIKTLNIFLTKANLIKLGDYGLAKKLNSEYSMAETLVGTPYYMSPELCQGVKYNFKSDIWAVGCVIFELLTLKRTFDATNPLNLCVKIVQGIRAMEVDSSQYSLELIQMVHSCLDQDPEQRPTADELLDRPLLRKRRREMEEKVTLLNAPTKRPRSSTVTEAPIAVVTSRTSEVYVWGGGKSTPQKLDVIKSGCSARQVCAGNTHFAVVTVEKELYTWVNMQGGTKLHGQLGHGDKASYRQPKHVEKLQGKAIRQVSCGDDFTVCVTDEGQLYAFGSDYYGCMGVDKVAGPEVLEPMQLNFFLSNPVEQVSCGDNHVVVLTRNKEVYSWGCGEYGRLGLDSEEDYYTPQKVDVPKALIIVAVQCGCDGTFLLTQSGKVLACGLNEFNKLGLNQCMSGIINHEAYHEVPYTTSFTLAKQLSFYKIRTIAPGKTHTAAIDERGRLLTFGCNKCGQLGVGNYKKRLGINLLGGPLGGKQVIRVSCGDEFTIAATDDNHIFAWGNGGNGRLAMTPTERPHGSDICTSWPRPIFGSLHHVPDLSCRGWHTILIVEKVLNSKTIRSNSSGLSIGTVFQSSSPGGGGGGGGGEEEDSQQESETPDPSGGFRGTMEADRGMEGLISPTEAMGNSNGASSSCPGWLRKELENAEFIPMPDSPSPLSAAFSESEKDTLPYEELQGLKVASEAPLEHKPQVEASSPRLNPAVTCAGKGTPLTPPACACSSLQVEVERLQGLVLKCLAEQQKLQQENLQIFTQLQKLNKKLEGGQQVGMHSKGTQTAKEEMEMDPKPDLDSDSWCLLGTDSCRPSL

## CCC(=O)N1CCN(c2ccc(-n3c(=O)ccc4cnc5ccc(-c6cnc7ccccc7c6)cc5c43)cc2C(F)(F)F)CC1
[1]
  % of control: 58%

## CN(C)CCOc1ccc(-c2nc(-c3ccncc3)c(-c3ccc4c(c3)CC/C4=N\O)[nH]2)cc1
[2]
  % of control: 98%

## CC(=O)Nc1cccc(-n2c(=O)n(C3CC3)c(=O)c3c(Nc4ccc(I)cc4F)n(C)c(=O)c(C)c32)c1
[3]
  % of control: 97%

## CC[C@@H]1[C@H](F)C(=O)N[C@@H]1COc1nccc2cc(C(N)=O)c(OC)cc12 [ZIMLOVISERTIB]
[4]
  % of inhibition: 2.82%
